Results on 29 compounds are retold here after patent US20250340570A1, “COMPOSITIONS USEFUL FOR MODULATING SPLICING” (Skyhawk Therapeutics, Inc., priority 2022, published 2025).

Broadly, the pIC50 is the negative decadic logarithm of the IC50, by convention in mol/L. Read a high pIC50 as a low IC50.

The structures appear in SMILES notation. pIC50: −log10 of the molar value.

In assay [1] the test system is ATXN3 transcripts containing exon 4. Put plainly: ATXN3 quantitative splicing assay (qPCR, E4E5 transcripts containing exon 4). The note with it: Human neuroblastoma SK-N-MC cells, 24 h treatment, qPCR primers/probe E4E5. The class given is cell-based. As to the method:
Human neuroblastoma SK-N-MC cells were plated in 384-well plates at 20,000 cells/well. Twenty-four hours after plating, cells were treated with compounds for 24 h at appropriate concentrations ranging from 30 μM to 0.6 nM (0.3% DMSO). Treated cells were lysed in 15 μL of lysis buffer, and cDNA was synthesized using the Fast Advanced Cells-to-Ct kit. Two μL of each cDNA was used in qPCR reactions to confirm the exon 4 skipped transcripts of ATXN3. A second set of primers/probe E4E5 was used to detect the transcripts containing exon 4. The third set of primers/probe E8E9 was used to detect total gene level of ATXN3. The qPCR reactions were prepared in 384-well plates in 10.L volume, using TaqMan™ Fast Advanced Master Mix with primers and probes shown in the table below. Reactions were run in a Quant Studio 6 qPCR instrument with default settings.
The primers and probes are listed below in Table 5.
A general note: Quantitative PCR measures a nucleic acid by following its amplification.

For the next assay, the system named is total ATXN3 protein. Description: ATXN3 total protein assay (Mesoscale Discovery). The class given is cell-based. The note with it: Human neuroblastoma SK-N-MC cells, 48 hours incubation, MSD assay. As for the experimental part: Human neuroblastoma SK-N-MC cells were seeded at 10,000 cells/well in 384 well plates one day prior to compound treatment. The concentrations of compounds were tested at appropriate doses ranging from 30 µM to 0.6 nM. After incubation for 48 hours, the cells were lysed with 25.L of lysis buffer containing protease inhibitors, and total ATXN3 protein levels were assessed by Mesoscale Discovery (MSD) assay developed with one pair of and-ATXN3 antibodies. The capture and detect antibodies were raised in mouse and rabbit respectively. Anti-rabbit MSD-ST antibody was used for secondary antibody.
ATXN3 recombinant protein was used for standards. The readouts were captured with 35.L of MSD read buffer and multi-array 384-well high binding plates.

With `CSc1csc2c(NCc3ccco3)snc12` [Compound 90, (furfuryl){8-(methylthio)-3,6-dithia-2-azabicyclo[3.3.0]octa-1,4,7-trien-4-yl}amine], the pIC50 (in assay [1]; in the assay with total ATXN3 protein) was 4.40 to 5.00 in each case.
In the case of `CSc1c(C[C@H](C)N)sc2c(NCc3ccco3)snc12` [Compound 85, 7-[(S)-2-aminopropyl]-4-(furfurylamino)-8-(methylthio)-3,6-dithia-2-azabicyclo[3.3.0]octa-1,4,7-triene], the negative logarithm of the IC50 (pIC50) in assay [1] was 5.00 to 5.30; in the assay with total ATXN3 protein, 4.40 to 5.00.
`Cc1c(CCCN)sc2c(NCc3cccs3)snc12` [Compound 45, 7-(3-aminopropyl)-8-methyl-4-thenylamino-3,6-dithia-2-azabicyclo[3.3.0]octa-1,4,7-triene]: the pIC50 (in assay [1]; in the assay on total ATXN3 protein) was 4.40 to 5.00 each time.
Turning to `Brc1csc2c(NCc3cccs3)snc12` [Compound 113, (thenyl)(8-bromo-3,6-dithia-2-azabicyclo[3.3.0]octa-1,4,7-trien-4-yl)amine], the pIC50 (in assay [1]; in the assay with total ATXN3 protein) was 4.40 to 5.00 in each case.
With `C[C@H](N)Cc1sc2c(NCc3cccs3)snc2c1O` [Compound 27, 7-[(S)-2-aminopropyl]-4-thenylamino-3,6-dithia-2-azabicyclo[3.3.0]octa-1,4,7-trien-8-ol], the pIC50 (in assay [1]; in the assay on total ATXN3 protein) was 4.40 to 5.00 each time.
Turning to `C[C@H](N)Cc1sc2c(NCc3ccco3)snc2c1C(F)(F)F` [Compound 81, 7-[(S)-2-aminopropyl]-4-(furfurylamino)-8-(trifluoromethyl)-3,6-dithia-2-azabicyclo[3.3.0]octa-1,4,7-triene], the pIC50 (in assay [1]; in the assay on total ATXN3 protein) was 5.30 to 6.30 throughout.
Consider `C[C@H](F)[C@H](N)Cc1sc2c(NCc3sccc3F)snc2c1Br` [Compound 93, 7-[(2R,3S)-2-amino-3-fluorobutyl]-8-bromo-4-{[(3-fluoro-2-thienyl)methyl]amino}-3,6-dithia-2-azabicyclo[3.3.0]octa-1,4,7-triene], for which the pIC50 (in assay [1]; in the assay on total ATXN3 protein) was 5.30 to 6.30 in each case.
For the compound `C[C@@H](F)[C@H](N)Cc1sc2c(NCc3sccc3F)snc2c1Cl` [Compound 94, 7-[(2R,3R)-2-amino-3-fluorobutyl]-8-chloro-4-{[(3-fluoro-2-thienyl)methyl]amino}-3,6-dithia-2-azabicyclo[3.3.0]octa-1,4,7-triene], the pIC50 (in assay [1]; in the assay with total ATXN3 protein) was 5.00 to 5.30 in each case.
As for `N[C@H](Cc1sc2c(NCc3ccco3)snc2c1Br)CC1CC1` [Compound 61, 7-[(S)-2-amino-3-cyclopropylpropyl]-8-bromo-4-(furfurylamino)-3,6-dithia-2-azabicyclo[3.3.0]octa-1,4,7-triene], the pIC50 (in assay [1]; with total ATXN3 protein) was 6.30 to 7.00 in each case.
For the compound `N[C@H](Cc1sc2c(NCc3cccs3)snc2c1Br)C1CC(F)(F)C1` [Compound 80, 7-[(R)-2-amino-2-(3,3-difluorocyclobutyl)eth-yl]-8-bromo-4-thenylamino-3,6-dithia-2-azabicyclo[3.3.0]octa-1,4,7-triene], the pIC50 in assay [1] is 5.30 to 6.30; in the assay with total ATXN3 protein it was 5.00 to 5.30.
The matching figures for `C[C@H](N)Cc1sc2c(NCc3cccs3)snc2c1F` [Compound 30, 7-[(S)-2-aminopropyl]-8-fluoro-4-thenylamino-3,6-dithia-2-azabicyclo[3.3.0]octa-1,4,7-triene]: 5.00 to 5.30 and 4.40 to 5.00.
The corresponding values for `N[C@@H](COC1CC1)Cc1sc2c(NCc3cccs3)snc2c1Br` [Compound 100, 7-[(R)-2-amino-3-cyclopropoxypropyl]-8-bromo-4-thenylamino-3,6-dithia-2-azabicyclo[3.3.0]octa-1,4,7-triene] are 5.30 to 6.30 and 5.30 to 6.30.
The matching figures for `C[C@@H](F)[C@H](N)Cc1sc2c(NCc3cccs3)snc2c1Cl` [Compound 75, 7-[(2R,3R)-2-amino-3-fluorobutyl]-8-chloro-4-thenylamino-3,6-dithia-2-azabicyclo[3.3.0]octa-1,4,7-triene]: 6.30 to 7.00 and 5.30 to 6.30.
On to `CC#C[C@H](N)Cc1sc2c(NCc3cccs3)snc2c1C` [Compound 55, 7-[(R)-2-amino-3-pentynyl]-8-methyl-4-thenylamino-3,6-dithia-2-azabicyclo[3.3.0]octa-1,4,7-triene], for which the pIC50 (in assay [1]; with total ATXN3 protein) was 4.40 to 5.00 throughout.
In the case of `C[C@H](N)Cc1sc2c(NCc3ccco3)snc2c1C1CC1` [Compound 31, 7-[(S)-2-aminopropyl]-8-cyclopropyl-4-(furfurylamino)-3,6-dithia-2-azabicyclo[3.3.0]octa-1,4,7-triene], the pIC50 (in assay [1]; with total ATXN3 protein) was 5.00 to 5.30 each time.
Consider `N[C@@H](CO)Cc1sc2c(NCc3ccco3)snc2c1Cl` [Compound 46, (R)-2-amino-3-{8-chloro-4-(furfurylamino)-3,6-dithia-2-azabicyclo[3.3.0]octa-1,4,7-trien-7-yl}-1-propanol], for which the pIC50 (in assay [1]; with total ATXN3 protein) was 6.30 to 7.00 each time.
On to `N[C@H](Cc1sc2c(NCc3cccs3)snc2c1Br)CC1CC1` [Compound 49, 7-[(S)-2-amino-3-cyclopropylpropyl]-8-bromo-4-thenylamino-3,6-dithia-2-azabicyclo[3.3.0]octa-1,4,7-triene], for which the pIC50 (in assay [1]; with total ATXN3 protein) was 5.30 to 6.30 throughout.
Consider `C[C@H](N)C(F)(F)c1sc2c(NCc3cccs3)snc2c1Br` [Compound 99, 5-[(2S)-2-amino-1,1-difluoropropyl]-6-bromo-N-(thiophen-2-ylmethyl)thieno[3,2-c][1,2]thiazol-3-amine], for which the pIC50 (in assay [1]; in the assay with total ATXN3 protein) was 5.30 to 6.30 in each case.
Consider `C[C@H](N)Cc1sc2c(NCc3ccco3)snc2c1Br` [Compound 24, 7-[(S)-2-aminopropyl]-8-bromo-4-(furfurylamino)-3,6-dithia-2-azabicyclo[3.3.0]octa-1,4,7-triene], for which the pIC50 (in assay [1]; in the assay on total ATXN3 protein) was 6.30 to 7.00 throughout.
As for `C[C@H](N)C(F)(F)c1sc2c(NCc3cccs3)snc2c1Cl` [Compound 98, 7-[(S)-2-amino-1,1-difluoropropyl]-8-chloro-4-thenylamino-3,6-dithia-2-azabicyclo[3.3.0]octa-1,4,7-triene], the pIC50 (in assay [1]; with total ATXN3 protein) was 5.30 to 6.30 throughout.
For the compound `N[C@H](Cc1sc2c(NCc3cccs3)snc2c1Cl)CC(F)F` [Compound 69, 7-[(S)-2-amino-4,4-difluorobutyl]-8-chloro-4-thenylamino-3,6-dithia-2-azabicyclo[3.3.0]octa-1,4,7-triene], the pIC50 (in assay [1]; with total ATXN3 protein) was 4.40 to 5.00 each time.
In the case of `N[C@H](Cc1sc2c(NCc3ccco3)snc2c1Br)CC(F)(F)F` [Compound 41, 7-[(S)-2-amino-4,4,4-trifluorobutyl]-8-bromo-4-(furfurylamino)-3,6-dithia-2-azabicyclo[3.3.0]octa-1,4,7-triene], the pIC50 (in assay [1]; with total ATXN3 protein) was 5.30 to 6.30 in each case.
Regarding `N[C@H](Cc1sc2c(NCc3ccco3)snc2c1Cl)CC1CC1` [Compound 57, 7-[(S)-2-amino-3-cyclopropylpropyl]-8-chloro-4-(furfurylamino)-3,6-dithia-2-azabicyclo[3.3.0]octa-1,4,7-triene], the figures for the pIC50 (in assay [1]; in the assay on total ATXN3 protein) were 6.30 to 7.00 and 5.30 to 6.30, respectively.
The corresponding values for `N[C@H](Cc1sc2c(NCc3ccco3)snc2c1Cl)CC(F)(F)F` [Compound 40, 7-[(S)-2-amino-4,4,4-trifluorobutyl]-8-chloro-4-(furfurylamino)-3,6-dithia-2-azabicyclo[3.3.0]octa-1,4,7-triene] are 5.30 to 6.30 and 5.30 to 6.30.
Regarding `N[C@@H](CO)Cc1sc2c(NCc3ccco3)snc2c1Br` [Compound 60, (R)-2-amino-3-{8-bromo-4-(furfurylamino)-3,6-dithia-2-azabicyclo[3.3.0]octa-1,4,7-trien-7-yl}-1-propanol], the pIC50 (in assay [1]; with total ATXN3 protein) was 7.00 to 11.00 throughout.
With `Cc1c(C[C@@H](N)[C@H](C)F)sc2c(NCc3cccs3)snc12` [Compound 72, 7-[(2R,3S)-2-amino-3-fluorobutyl]-8-methyl-4-thenylamino-3,6-dithia-2-azabicyclo[3.3.0]octa-1,4,7-triene], the pIC50 in assay [1] is 5.30 to 6.30; in the assay with total ATXN3 protein, 6.30 to 7.00.
The corresponding values for `COC[C@H](N)Cc1sc2c(NCc3ccco3)snc2c1Cl` [Compound 65, 7-[(R)-2-amino-3-methoxypropyl]-8-chloro-4-(furfurylamino)-3,6-dithia-2-azabicyclo[3.3.0]octa-1,4,7-triene] are 5.30 to 6.30 and 6.30 to 7.00.
The matching figures for `CC(=O)Nc1csc2c(NCc3cccs3)snc12` [Compound 88, N-(4-thenylamino-3,6-dithia-2-azabicyclo[3.3.0]octa-1,4,7-trien-8-yl)acetamide]: 4.40 to 5.00 and 4.40 to 5.00.
The matching figures for `N[C@H](Cc1sc2c(NCc3cccs3)snc2c1Cl)C1CC(F)(F)C1` [Compound 53, 7-[(R)-2-amino-2-(3,3-difluorocyclobutyl)eth-yl]-8-chloro-4-thenylamino-3,6-dithia-2-azabicyclo[3.3.0]octa-1,4,7-triene]: 5.30 to 6.30 and 5.30 to 6.30.
